Experimental data taken from US7138361B2, “Herbicidal heterocycles” (E. I. du Pont de Nemours and Company, priority 2000, dated 2006).

Experiments:
Assay type in all cases: in vivo
[1] = test system: Surinam grass (Brachiaria decumbens); assay: Test B postemergence; settings: 13 to 15 days
Procedure, shortened: (§1)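 Post-treatment, species sat 13–15 days under greenhouse conditions before visual scoring against controls, 0 (no effect) through 100 (complete control). Application preemergence to sown seeds or postemergence at 1- to 4-leaf stage, using a non-phytotoxic solvent/surfactant formulation.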

[2] = test system: giant foxtail (Setaria faberii); assay: Test B postemergence; settings: 13 to 15 days
Procedure, shortened: as §1

[3] = test system: blackgrass (Alopecurus myosuroides); assay: Test B postemergence; settings: 13 to 15 days
Procedure, shortened: as §1

[4] = test system: wheat (Triticum aestivum); assay: Test B postemergence; settings: 13 to 15 days
Procedure, shortened: as §1

[5] = test system: morning glory (Ipomoea hederacea); assay: Test B postemergence; settings: 13 to 15 days
Procedure, shortened: as §1

[6] = test system: corn (Zea mays); assay: Test B postemergence; settings: 13 to 15 days
Procedure, shortened: as §1

[7] = test system: barnyardgrass (Echinochloa crus-galli); assay: Test B postemergence; settings: 13 to 15 days
Procedure, shortened: as §1

[8] = test system: velvetleaf (Abutilon theophrasti); assay: Test B postemergence; settings: 13 to 15 days
Procedure, shortened: as §1

[9] = test system: Surinam grass (Brachiaria decumbens); assay: Test B preemergence; settings: scale 0 to 100, 0 no effect, 100 complete control
Procedure, shortened: as §1

[10] = test system: giant foxtail (Setaria faberii); assay: Test B preemergence; settings: scale 0 to 100, 0 no effect, 100 complete control
Procedure, shortened: as §1

[11] = test system: rice (Oryza saliva); assay: Test B preemergence; settings: scale 0 to 100, 0 no effect, 100 complete control
Procedure, shortened: as §1

[12] = test system: morning glory (Ipomoea hederacea); assay: Test B preemergence; settings: scale 0 to 100, 0 no effect, 100 complete control
Procedure, shortened: as §1

[13] = test system: corn (Zea mays); assay: Test B preemergence; settings: scale 0 to 100, 0 no effect, 100 complete control
Procedure, shortened: as §1

[14] = test system: barnyardgrass (Echinochloa crus-galli); assay: Test B preemergence; settings: scale 0 to 100, 0 no effect, 100 complete control
Procedure, shortened: as §1

[15] = test system: pigweed (Amaranthus retroflexus); assay: Test B preemergence; settings: scale 0 to 100, 0 no effect, 100 complete control
Procedure, shortened: as §1

[16] = test system: lambsquarters (Chenopodium album); assay: Test B preemergence; settings: scale 0 to 100, 0 no effect, 100 complete control
Procedure, shortened: as §1

[17] = test system: velvetleaf (Abutilon theophrasti); assay: Test B preemergence; settings: scale 0 to 100, 0 no effect, 100 complete control
Procedure, shortened: as §1

[18] = test system: crabgrass (Digitaria sanguinalis); assay: Test B preemergence; settings: scale 0 to 100, 0 no effect, 100 complete control
Procedure, shortened: as §1

[19] = test system: cocklebur (Xanthium strumarium); assay: Test B preemergence; settings: scale 0 to 100, 0 no effect, 100 complete control
Procedure, shortened: as §1

[20] = Rate 125 g/ha, scale 0 (no effect) to 100 (complete control)
[21] = Rate 500 g/ha, scale 0 to 100, 0 is no effect, 100 is complete control

SMILES	Plant response rating, Surinam grass [1, 20]	Plant response rating, Surinam grass [1, 21]	Plant response rating, Foxtail, Giant [2, 20]	Plant response rating, Foxtail, Giant [2, 21]	Plant response rating, Blackgrass [3, 20]	Plant response rating, Blackgrass [3, 21]	Plant response rating, Wheat [4, 20]	Plant response rating, Wheat [4, 21]	Plant response rating, Morningglory [5, 20]	Plant response rating, Morningglory [5, 21]	Plant response rating, Corn [6, 20]	Plant response rating, Corn [6, 21]	Plant response rating, Barnyardgrass [7, 20]	Plant response rating, Barnyardgrass [7, 21]	Plant response rating, Velvetleaf [8, 20]	Plant response rating, Velvetleaf [8, 21]	Plant response rating, Surinam grass ([9]; Preemergence, Rate 500 g/ha)	Plant response rating, Surinam grass ([9]; preemergence, Rate 125 g/ha)	Plant response rating, Foxtail, Giant ([10]; Preemergence, Rate 500 g/ha)	Plant response rating, Foxtail, Giant ([10]; preemergence, Rate 125 g/ha)	also measured
O=C1C(n2cccn2)CCN1c1cccc(C(F)(F)F)c1 (stereo not shown) [Compound 15]	0	0	0	30	0	30	0	0	0	0	0	0	0	0	0	0	20	0	0	0	Plant response rating, Rice ([11]; Preemergence, Rate 500 g/ha): 0; Plant response rating, Rice ([11]; preemergence, Rate 125 g/ha): 0; Plant response rating, Morningglory ([12]; Preemergence, Rate 500 g/ha): 30; Plant response rating, Morningglory ([12]; preemergence, Rate 125 g/ha): 0; Plant response rating, Corn ([13]; Preemergence, Rate 500 g/ha): 0; Plant response rating, Corn ([13]; preemergence, Rate 125 g/ha): 0; Plant response rating, Barnyardgrass ([14]; Preemergence, Rate 500 g/ha): 0; Plant response rating, Barnyardgrass ([14]; preemergence, Rate 125 g/ha): 0; Plant response rating, Pigweed ([15]; Preemergence, Rate 500 g/ha): 0; Plant response rating, Pigweed ([15]; preemergence, Rate 125 g/ha): 0; Plant response rating, Lambsquarters ([16]; Preemergence, Rate 500 g/ha): 60; Plant response rating, Lambsquarters ([16]; preemergence, Rate 125 g/ha): 0; Plant response rating, Velvetleaf ([17]; Preemergence, Rate 500 g/ha): 70; Plant response rating, Velvetleaf ([17]; preemergence, Rate 125 g/ha): 50; Plant response rating, Crabgrass ([18]; Preemergence, Rate 500 g/ha): 0; Plant response rating, Crabgrass ([18]; preemergence, Rate 125 g/ha): 0; Plant response rating, Cocklebur ([19]; Preemergence, Rate 500 g/ha): 0; Plant response rating, Cocklebur ([19]; preemergence, Rate 125 g/ha): 0
Cc1ccn(C2CCN(c3cccc(C(F)(F)F)c3)C2=O)n1 (stereo not shown) [Compound 16]	0	0	0	30	0	0	0	0	0	0	0	0	0	0	0	0	0	0	0	0	Plant response rating, Rice ([11]; Preemergence, Rate 500 g/ha): 0; Plant response rating, Rice ([11]; preemergence, Rate 125 g/ha): 0; Plant response rating, Morningglory ([12]; Preemergence, Rate 500 g/ha): 0; Plant response rating, Morningglory ([12]; preemergence, Rate 125 g/ha): 0; Plant response rating, Corn ([13]; Preemergence, Rate 500 g/ha): 0; Plant response rating, Corn ([13]; preemergence, Rate 125 g/ha): 0; Plant response rating, Barnyardgrass ([14]; Preemergence, Rate 500 g/ha): 0; Plant response rating, Barnyardgrass ([14]; preemergence, Rate 125 g/ha): 0; Plant response rating, Pigweed ([15]; Preemergence, Rate 500 g/ha): 0; Plant response rating, Pigweed ([15]; preemergence, Rate 125 g/ha): 0; Plant response rating, Lambsquarters ([16]; Preemergence, Rate 500 g/ha): 0; Plant response rating, Lambsquarters ([16]; preemergence, Rate 125 g/ha): 0; Plant response rating, Velvetleaf ([17]; Preemergence, Rate 500 g/ha): 20; Plant response rating, Velvetleaf ([17]; preemergence, Rate 125 g/ha): 0; Plant response rating, Crabgrass ([18]; Preemergence, Rate 500 g/ha): 0; Plant response rating, Crabgrass ([18]; preemergence, Rate 125 g/ha): 0; Plant response rating, Cocklebur ([19]; Preemergence, Rate 500 g/ha): 0; Plant response rating, Cocklebur ([19]; preemergence, Rate 125 g/ha): 0
